# Source: article PMC5969508, “Stapled peptides as a new technology to investigate protein–protein interactions in human platelets” (Chemical Science, 2018)
# Where two headings read alike, the source gives them in different places.
# How the values were obtained:
# human platelets [1] = experiment: Platelet activation markers (PAC-1, CD62P, CD63 binding) by flow cytometry; format: cell-based; conditions: for platelet activation markers PAC-1, CD62P, CD63 (in words): washed human platelets, 10 μM, 1 h treatment, flow cytometry (Fig. 5B)
# Method: Fig. 5 (A) Functionalised, stapled Bim BH3 peptides induce PS exposure in platelets. […] (B) Stapled Bim BH3 peptides, but not ABT737 nor 21, induce platelet activation. Platelet activation markers (% positive platelets) were investigated following 1 h of peptide treatment. [drawing 10] PAC-1, [drawing 11] CD62P and [drawing 12] CD63 binding. Statistical significance compared to 20: ****P < 0.0001, ***P between 0.0001 and 0.0005, **P between 0.0010 and 0.0050 ns = non-significant.
# (§1) Ethical approval for this study was obtained from the Faculty Research Ethics Committee at Anglia Ruskin University, Cambridge, UK.
# (§2) 1.1 Preparation of washed platelet suspension
# Blood was collected into 11 mM sodium citrate and washed platelets were prepared as follows: Platelet-rich plasma (PRP) was obtained by centrifugation (240 g, 15 min). Prostaglandin E1 (PGE1, 2 µM) was added to prevent premature platelet activation, and the plasma was centrifuged at 640 g for 15 min. Platelets were suspended in calcium free Tyrode‘s buffer (CFT buffer, containing: 140 mM NaCl, 5 mM KCl, 10 mM N-2-hydroxyethylpiperazine-N‘-2-ethanesulfonic acid (HEPES), 5 mM Glucose, 0.42 mM NaH2PO4, 12 mM NaHCO3, titrated to pH 7.4 with NaOH) to a final concentration of 2x108 platelet/mL and rested at 37 °C for 1 h prior to experimentation.
# Treated washed platelet suspensions (1x10^7/mL) were analysed by flow cytometry using a C6 Accuri Flow Cytometer (Beckton Dickinson, UK), in the presence or absence of Annexin-V-PE (BD Biosciences, UK), anti-PAC-1 (BD Biosciences), anti-CD62 (BD Pharmingen, UK), or anti-CD-63P (BD Pharmingen).
# Peptides were used to a final concentration of 10 µM (1 mM DMSO stock solutions). At least 10,000 events were acquired per experiment. The entire platelet population was primarily gated by FSC. […]
# (§3) The washed platelet suspension was rested at 37 °C for 1 h before commencing the experiment. […] For real time measurments, the peptides were added to the 250 μL of washed platelet suspension after events were recorded for 1 minute and monitored for a further 4 min. […]
# The suspensions were analysed by […]
# human platelets [2] = experiment: Confocal microscopy of platelets incubated with fluorescently labelled peptides; format: cell-based; conditions: live washed platelets, 10 µM FITC-labelled peptide, 15 minutes incubation, confocal imaging (Fig. SI_5)
# Method: (§4) Fig. 3 A functionalised staple is required to induce peptide uptake into platelets. (A) Platelets were incubated with TAMRA labelled model peptides (10 μM final concentration) for 1 h (white), 2 h (grey) and 3 h incubation (black) and the percentage positive for TAMRA fluorescence was quantified using flow cytometry. (B) Peptides showing high uptake within the first hour were analysed during first 5 min following treatment. Changes in platelet-associated fluorescence were recorded in real time using flow cytometry. Unlabelled platelets were recorded for 30 s prior to addition of the given peptide. (C) Platelets were incubated with 10 μM of TAMRA-model peptides for 1 h prior to imaging by confocal microscopy. ^‡ […]
# Peptide uptake experiments of the most permeable model peptides 5, 13–16 were repeated in the presence of platelet-rich plasma (PRP) to ensure realistic conditions (ESI, Fig. SI_2a ^†).
# Figure SI_3. […]
# Peptides were used to a final concentration of 10 µM. […] Images of TAMRA-labelled model peptide stained platelets were acquired after 1 h incubation1 using with excitation at 565 nm and emission was detected with a 560 -615 nm BP filter. […]
# were acquired after 15 minutes incubation1 using excitation at 488 nm and emission was detected with […]
# Bcl-xL = target: T1, Bcl-xL (Homo sapiens, UniProt Q07817); experiment: Surface plasmon resonance (SPR) direct binding to Bcl-xL; conditions: 25 °C
# T1 construct: made in house; host or cells: Escherichia coli BL21 Gold DE3
# Text: 1.9 Surface Plasmon Resonance (SPR)
# The present method utilizes a Surface plasmon resonance (SPR)-based biosensor (BiacoreTM, GE Healthcare,
# Uppsala, Sweden) to characterize Bcl-xL peptide interaction partners.
# The SPR assay is configured to examine direct binding of peptide s to Bcl-xL derivatized sensor surfaces and
# generate relative affinity values (KDapp) to provide relative ranking data for the series of peptides under
# BiacoreTM T200 (GE Healthcare, Uppsala, Sweden) was used to conduct all experiments reported herein. Sensor
# surface preparation and all interaction analyses experiments were performed at 25 °C utilizing a data collection
# rate of 10 Hz. Reagents were purchased from GE Healthcare. Running buffer containing 10 mM Hepes, pH 7.4,
# 150 mM sodium chloride, 1 mM dithiothreitol, 1% DMSO and 0.05% polysorbate 20 were utilized throughout
# surface preparation and all interaction analysis experiments.
# Histidine tagged Bcl-xL protein was diluted to 5 μg/mL and captured onto Sensor chip NTA via the following
# sequence of injections to achieve a target Bcl-xL surface density of 700 R.U. (response units). The carboxymethyl
# dextran surface of Sensor chip NTA was activated by injection of an aqueous solution containing 50 mM N-hydroxy
# succinimide (NHS) and 200 mM N-ethyl-N’-(dimethylaminopropyl) carbodiimide (EDC). 500 μM nickel sulfate (NiSO4)
# was subsequently injected for one minute and utilized to capture Bcl-xL from a 5 μg/mL solution injected for one
# minute. A further one-minute injection of 1M ethanolamine, pH 8.5 was performed to deactivate any unreacted
# carboxymethylesters.3 The flow-rate for all injections during surface derivatization was 10 µl/min.
# human platelets [3] = experiment: Peptide uptake in washed platelet suspension by flow cytometry; format: cell-based; conditions: for positive platelets (TAMRA fluorescence), peptide uptake: TAMRA-labelled model peptide 10 μM (1 mM DMSO stock), 37 °C in the dark, 3 h incubation, flow cytometry, mean ± SEM, at least three donors
# Method: Washed platelet suspensions were incubated with peptides for varying periods of time and cellular uptake was quantified using flow cytometry. […] Only 34.9 ± 7.8% of platelets were fluorescent following 8 (poly-lysine) treatments after 3 hours. Changes in fluorescence were not observed with other peptides (Fig. 3A).
# as §4
# In order to explore the rate of peptide uptake, changes in platelet fluorescence were monitored during the first 5 minutes (Fig. 3B) and after 15, 30, 45 and 60 minutes following treatment with peptides (Fig. SI_1, ESI ^†). More than 50% of platelets became fluorescent during the first 15 minutes of incubation with peptides 13–16, with a further increase after the first 45 minutes. Some 40–50% of platelets were fluorescent after 15 minutes following treatment with peptides 2, 5 or 8. No further increase was observed thereafter (Fig. SI_1, ESI ^†).
# as §1, §2
# Blood was collected into 11 mM sodium citrate and washed platelets were prepared as follows: Platelet-rich plasma (PRP) was obtained by centrifugation (240 g, 15 min). Prostaglandin E1 (PGE1, 2 µM) was added to prevent premature platelet activation, and the plasma was centrifuged at 640 g for 15 min. […]
# Treated washed platelet suspensions (1x10^7/mL) were analysed by flow cytometry using a C6 Accuri Flow Cytometer (Beckton Dickinson, UK), in the presence or absence of Annexin-V-PE (BD Biosciences, UK), anti-PAC-1 (BD Biosciences), anti-CD62 (BD Pharmingen, UK), or anti-CD-63P (BD Pharmingen). […]
# as §3
# human platelets [4] = experiment: PS exposure (annexin-V binding) by flow cytometry; format: cell-based; conditions: washed human platelets, 10 μM, 37 °C, time course up to 3 h, flow cytometry (Fig. 5A)
# Method: Platelet activation markers (% positive platelets) were investigated following 1 h of peptide treatment. […] CD63 binding.
# Human blood was collected from healthy volunteers, who had not taken medication for two weeks,
# following informed consent in accordance with the Declaration of Helsinki. Blood was collected into 11 mM sodium citrate and washed platelets were prepared as follows: Platelet-rich plasma (PRP) was obtained by centrifugation (240 g, 15 min). Prostaglandin E1 (PGE1, 2 µM) was added to prevent premature platelet activation, and the plasma was centrifuged at 640 g for 15 min. […]
# PS exposure was assessed after incubation of 50 µL of washed platelet suspensions at 37 °C in 445 µL of […]
# under the protection from direct light and analysed by flow cytometry.
# Platelet activation markers (PAC -1, CD62P and CD63 binding) were assessed after incubation of 3 µL of […]
# antibody and the peptide (1.1 μL of 1 mM stock solution in DMSO) . The suspensions were analysed by […]
# [5] = SPR Biacore T200, His-tagged Bcl-xL on Sensor chip NTA, 7-point 2-fold dilution 33.3 nM to 1.03 nM, steady state fit, Table S1, read-out: Rel. Kdapp
# [6] = washed human platelet suspension
# T1 sequence (Q07817 whole entry): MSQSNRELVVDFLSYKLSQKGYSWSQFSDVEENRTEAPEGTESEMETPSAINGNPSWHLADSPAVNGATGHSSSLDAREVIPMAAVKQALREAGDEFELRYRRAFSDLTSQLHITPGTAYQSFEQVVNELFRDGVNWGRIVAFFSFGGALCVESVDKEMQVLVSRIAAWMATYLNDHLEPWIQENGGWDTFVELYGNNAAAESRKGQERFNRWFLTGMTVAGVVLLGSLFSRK
smiles,measurement,setting,value
CN(C)CC[C@H](CSc1ccccc1)Nc1ccc(S(=O)(=O)NC(=O)c2ccc(N3CCN(Cc4ccccc4-c4ccc(Cl)cc4)CC3)cc2)cc1[N+](=O)[O-] [ABT737],PAC1-positive platelets (integrin αIIbβ3 activation),"human platelets [1]; washed human platelets in CFT buffer pH 7.4, 10 μM, 37 °C, after 1 hour, flow cytometry, mean ± SEM",ineffective
same,"platelet activation markers PAC-1, CD62P, CD63 (in words)",human platelets [1],no increase in any activation marker
"CC[C@H](C)[C@H](NC(C)=O)C(=O)N[C@@H](Cc1c[nH]c2ccccc12)C(=O)N[C@H](C(=O)N[C@@H](C)C(=O)N[C@@H](CCC(N)=O)C(=O)N[C@@H](CCC(=O)O)C(=O)N[C@@H](CC(C)C)C(=O)N[C@@H](CCCNC(=N)N)C(=O)N[C@@]1(C)CCCC=CCCC[C@@](C)(C(=O)N[C@@H](Cc2ccccc2)C(=O)N[C@@H](CC(N)=O)C(=O)N[C@@H](C)C(=O)N[C@@H](Cc2ccc(O)cc2)C(=O)N[C@@H](Cc2ccc(O)cc2)C(=O)N[C@@H](C)C(=O)N[C@@H](CCCNC(=N)N)C(=O)N[C@@H](CCCNC(=N)N)C(N)=O)NC(=O)[C@H](CC(=O)O)NC(=O)CNC(=O)[C@H]([C@@H](C)CC)NC1=O)[C@@H](C)CC [Bim SAHBa, reference compound]",localisation / platelet permeability of FITC-labelled Bim BH3 peptide,human platelets [2],able to enter the platelet cytosol
same,Kd,Bcl-xL; [5],> 33 nM
same,relative KDapp,"Bcl-xL; SPR, His-tagged Bcl-xL captured on Sensor chip NTA, steady state affinity, as quoted in main text",reduced binding affinity compared to the wild-type and peptide 19
CC(C)C[C@@H]1NC(=O)[C@H](CC(C)C)NC(=O)[C@H](CCCNC(=N)N)NC(=O)[C@H](Cc2c[nH]c3ccccc23)NC(=O)[C@H](CC(C)C)NC(=O)[C@H](CC(=O)O)NC(=O)[C@@H](NC(=O)[C@H](Cc2ccccc2)NC(=O)[C@@H](NC(=O)[C@H](CCC(=O)O)NC(=O)CCCCCNC(=O)c2ccc3c(c2)C(=O)OC32c3ccc(N(C)C)cc3Oc3cc(N(C)C)ccc32)[C@@H](C)O)CCCn2cc(nn2)-c2cc(C(=O)N[C@@H](CCCNC(=N)N)C(=O)N[C@@H](CCCNC(=N)N)C(N)=O)cc(c2)-c2cn(nn2)CCC[C@@H](C(=O)N[C@@H](CCC(=O)O)C(=O)N[C@@H](CC(N)=O)C(N)=O)NC1=O [compound 4],"positive platelets (TAMRA fluorescence), peptide uptake",human platelets [3]; [6],73.0 ± 13.3%
CC(C)C[C@@H]1NC(=O)[C@H](CC(C)C)NC(=O)[C@H](CCCNC(=N)N)NC(=O)[C@H](Cc2c[nH]c3ccccc23)NC(=O)[C@H](CC(C)C)NC(=O)[C@H](CC(=O)O)NC(=O)[C@@H](NC(=O)[C@H](Cc2ccccc2)NC(=O)[C@@H](NC(=O)[C@H](CCC(=O)O)NC(=O)CCCCCNC(=O)c2ccc3c(c2)C(=O)OC32c3ccc(N(C)C)cc3Oc3cc(N(C)C)ccc32)[C@@H](C)O)CCCn2cc(nn2)-c2cc(C(=O)N[C@@H](CCCNC(=N)N)C(=O)N[C@@H](CCCNC(=N)N)C(=O)N[C@@H](CCCNC(=N)N)C(N)=O)cc(c2)-c2cn(nn2)CCC[C@@H](C(=O)N[C@@H](CCC(=O)O)C(=O)N[C@@H](CC(N)=O)C(N)=O)NC1=O [compound 5],"positive platelets (TAMRA fluorescence), peptide uptake",human platelets [3]; [6],87.0 ± 7.3%
same,"fluorescent platelets, peptide uptake","human platelets [3]; washed human platelet suspension, TAMRA-labelled model peptide 10 μM, 37 °C, first 15 minutes of incubation, flow cytometry (Fig. SI_1)",40–50%
same,change in platelet-associated fluorescence in real time,"human platelets [3]; washed human platelets, TAMRA-labelled peptide, continuous flow cytometry during first 5 minutes of treatment (Fig. 3B)",rapid increase in platelet fluorescence
CC[C@H](C)[C@H](NC(C)=O)C(=O)N[C@@H](Cc1c[nH]c2ccccc12)C(=O)N[C@H](C(=O)N[C@@H](C)C(=O)N[C@@H](CCC(N)=O)C(=O)N[C@@H](CCC(=O)O)C(=O)N[C@@H](CC(C)C)C(=O)N[C@@H](CCCNC(=N)N)C(=O)N[C@H]1CCCn2cc(nn2)-c2cc(C(=O)N[C@@H](CCCNC(=N)N)C(=O)N[C@@H](CCCNC(=N)N)C(=O)N[C@@H](CCCNC(=N)N)C(N)=O)cc(c2)-c2cn(nn2)CCC[C@@H](C(=O)N[C@@H](Cc2ccccc2)C(=O)N[C@@H](CC(N)=O)C(=O)N[C@@H](C)C(=O)N[C@@H](Cc2ccc(O)cc2)C(=O)N[C@@H](Cc2ccc(O)cc2)C(=O)N[C@@H](C)C(=O)N[C@@H](CCCNC(=N)N)C(=O)N[C@@H](CCCNC(=N)N)C(N)=O)NC(=O)[C@H](CC(=O)O)NC(=O)CNC(=O)[C@H]([C@@H](C)CC)NC1=O)[C@@H](C)CC [peptide 19],Kd,Bcl-xL; [5],26.2 nM
same,Kd,"Bcl-xL; SPR, His-tagged Bcl-xL captured on Sensor chip NTA, steady state affinity, as quoted in main text, read-out: relative KDapp",26 nM
CC[C@H](C)[C@H](NC(C)=O)C(=O)N[C@@H](Cc1c[nH]c2ccccc12)C(=O)N[C@H](C(=O)N[C@@H](C)C(=O)N[C@@H](CCC(N)=O)C(=O)N[C@@H](CCC(=O)O)C(=O)N[C@@H](CC(C)C)C(=O)N[C@@H](CC(=O)O)C(=O)N[C@H]1CCCn2cc(nn2)-c2cc(C(=O)N[C@@H](CCCNC(=N)N)C(=O)N[C@@H](CCCNC(=N)N)C(=O)N[C@@H](CCCNC(=N)N)C(N)=O)cc(c2)-c2cn(nn2)CCC[C@@H](C(=O)N[C@@H](Cc2ccccc2)C(=O)N[C@@H](CC(N)=O)C(=O)N[C@@H](C)C(=O)N[C@@H](Cc2ccc(O)cc2)C(=O)N[C@@H](Cc2ccc(O)cc2)C(=O)N[C@@H](C)C(=O)N[C@@H](CCCNC(=N)N)C(=O)N[C@@H](CCCNC(=N)N)C(N)=O)NC(=O)[C@H](CC(=O)O)NC(=O)CNC(=O)[C@H]([C@@H](C)CC)NC1=O)[C@@H](C)CC [peptide 21],Rel. Kdapp,"Bcl-xL; SPR Biacore T200, His-tagged Bcl-xL on Sensor chip NTA, 7-point 2-fold dilution 33.3 nM to 1.03 nM, steady state fit, Table S1",No binding
same,"platelet activation markers PAC-1, CD62P, CD63 (in words)",human platelets [1],nonspecific activation was not observed
same,PS exposure / annexin-V binding (in words),human platelets [4],did not result in PS exposure
